For the test, the target named is T1, NMDA receptor composed of four subunits including 2 sets of heterodimers of NR1 and NR2B (Homo sapiens, UniProt Q13224).
T1 construct: host or cells: HEK293 (tetracycline-induced expression)
Put plainly: NR2B Ca2+ influx assay (FLIPR, Fluo-4) in HEK293 cells expressing human GRIN1 and GRIN2B. As to conditions: HEK293, 10 μM final compound concentration, glutamic acid/glycine-induced Ca2+ influx, read-out: inhibitory rate (10 μM compound concentration). Format: cell-based. The source says:
To confirm the “antagonistic action on an NMDA receptor containing the NR2B subunit” of the compound of the present invention, human embryonic kidney cell expressing the “NMDA receptor composed of four subunits including 2 sets of heterodimers of NR1 and NR2B”, specifically HEK293 cell expressing human glutamate ionotropic receptor NMDA type subunit 1 (GRIN1) and human glutamate ionotropic receptor NMDA type subunit 2B (GRIN2B), was used and the activation suppressive effect on the receptors was measured.
As an index of the NMDA receptor activation, intracellular calcium ion (Ca^2+) influx caused by the binding of glycine and glutamic acid with NR1 and NR2B, respectively, was used. HEK293 cells were purchased from ChanTest. The cells were cultured in a DMEM/F-12 (COSMO BIO, 10-092-CM) medium added with 10% FBS′(fetal bovine serum, AusGene), 100 units/mL penicillin, 100 μg/mL streptomycin, 500 μg/mL neomycin, 100 μg/mL Zeocin, 5 μg/mL Blasticidin at 37° C., 5% CO2. The cells were detached from flask with trypsin the day before the assay, suspended in a seeding medium (DMEM (Invitrogen, 31053) added with 10% FBS, 100 units/mL penicillin, 100 μg/mL streptomycin) at 8×10^5 cells/mL, seeded by 25 μL per well in a 384-well plate (Falcon, 356663) at 20000 cells/well, and cultured overnight in an incubator. On the day of the assay, tetracycline (Wako Pure Chemical Industries, Ltd., 209-16561) was diluted with the seeding medium at 2 μg/mL, added at […] to the plate seeded with the cells, and cultured for 2 hr in an incubator. Thereafter, the medium was removed, and the cells were washed with 50 μL/well assay buffer (137 mM NaCl, 4 mM KCl, 1.8 mM CaCl2, 10 mM HEPES (pH 7.2), 10 mM Glucose, 0.1% BSA). Then, a loading buffer (assay buffer added with 2.5 uM Fluo-4AM, 2 mM Amaranth, 1 mM Tartrazine) was added at 25 μL/well, and loading was performed in the incubator for 30 min, and at room temperature for 15 min. A solution (25 μL) of the Example compound diluted with the above-mentioned assay buffer at 30 μM (final concentration 10 μM) was added, and the cells were stood for 15 min at room temperature. Using FLIPR (Molecular Devices), 25 μL of an assay buffer containing 30 μM glutamic acid, 30 μM glycine was added, and the fluorescence signal was measured every 3 seconds for 5 min. The inhibitory activity was calculated as a relative activity value (inhibitory rate) that inhibits 100% of the cumulative value of the fluorescence value of a well added with a buffer free of glutamic acid, glycine, relative to the cumulative value of the fluorescence value of each well.

T1 sequence (Q13224 27-1484, other chains not shown): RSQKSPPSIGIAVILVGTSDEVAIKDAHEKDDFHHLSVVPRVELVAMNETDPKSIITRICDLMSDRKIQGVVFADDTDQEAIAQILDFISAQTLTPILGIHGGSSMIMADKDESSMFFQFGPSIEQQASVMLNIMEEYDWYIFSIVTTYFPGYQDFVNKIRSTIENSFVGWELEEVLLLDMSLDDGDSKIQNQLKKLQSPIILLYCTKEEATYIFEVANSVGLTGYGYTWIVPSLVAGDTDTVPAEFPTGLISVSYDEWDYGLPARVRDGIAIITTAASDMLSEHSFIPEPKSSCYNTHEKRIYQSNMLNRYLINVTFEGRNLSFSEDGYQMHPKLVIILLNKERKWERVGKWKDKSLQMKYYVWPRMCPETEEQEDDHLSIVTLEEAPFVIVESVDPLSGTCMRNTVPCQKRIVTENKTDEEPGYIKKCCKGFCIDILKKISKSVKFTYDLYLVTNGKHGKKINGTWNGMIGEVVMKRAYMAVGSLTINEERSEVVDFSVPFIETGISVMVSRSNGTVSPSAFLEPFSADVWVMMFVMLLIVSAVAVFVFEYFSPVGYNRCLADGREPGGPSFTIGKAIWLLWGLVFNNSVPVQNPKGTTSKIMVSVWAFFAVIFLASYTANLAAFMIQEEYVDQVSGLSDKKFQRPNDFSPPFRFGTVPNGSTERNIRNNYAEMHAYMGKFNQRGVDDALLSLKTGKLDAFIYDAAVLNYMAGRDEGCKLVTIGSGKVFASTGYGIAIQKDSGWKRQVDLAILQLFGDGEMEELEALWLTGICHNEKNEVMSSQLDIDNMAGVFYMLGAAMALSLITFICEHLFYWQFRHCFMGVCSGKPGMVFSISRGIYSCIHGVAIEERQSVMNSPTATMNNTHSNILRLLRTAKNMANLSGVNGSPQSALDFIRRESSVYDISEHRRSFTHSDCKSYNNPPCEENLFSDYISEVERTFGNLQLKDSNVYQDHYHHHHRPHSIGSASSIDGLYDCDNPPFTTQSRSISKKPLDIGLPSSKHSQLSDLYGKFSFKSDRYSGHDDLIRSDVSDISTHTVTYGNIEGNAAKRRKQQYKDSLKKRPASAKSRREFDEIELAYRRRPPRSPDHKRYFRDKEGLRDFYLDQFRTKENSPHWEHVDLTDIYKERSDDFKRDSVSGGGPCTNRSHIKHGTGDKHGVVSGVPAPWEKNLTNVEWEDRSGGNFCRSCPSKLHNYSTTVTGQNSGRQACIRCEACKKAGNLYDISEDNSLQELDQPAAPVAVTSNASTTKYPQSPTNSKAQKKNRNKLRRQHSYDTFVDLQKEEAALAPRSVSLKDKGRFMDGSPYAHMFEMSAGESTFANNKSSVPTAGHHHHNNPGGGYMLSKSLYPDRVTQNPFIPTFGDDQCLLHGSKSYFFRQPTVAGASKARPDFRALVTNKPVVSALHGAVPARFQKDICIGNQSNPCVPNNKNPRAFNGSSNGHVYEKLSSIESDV

As to `CCn1cnc2ccc(OC)c(CNC(=O)c3cnc(OC)c(F)c3)c21` [Example 150, N-((1-ethyl-6-methoxy-1H-benzimidazol-7-yl)methyl)-5-fluoro-6-methoxynicotinamide], the inhibition at 10 µM turned out to be 60%. Under `Cc1ccc(C(=O)NCc2c(C3CC3)ccc3[nH]ncc23)cc1Cl` [Example 74, 3-chloro-N-((5-cyclopropyl-1H-indazol-yl)methyl)-4-methylbenzamide] stands 93%; under `O=C(NCc1cccc2[nH]ncc12)c1cc(F)c(F)c(Cl)c1` [Example 188, 3-chloro-4,5-difluoro-N-(1H-indazol-4-ylmethyl)benzamide], 52%. Under `COc1ccc2[nH]nnc2c1CNC(=O)c1ccc(OC(F)(F)F)c(F)c1` [Example 227, 3-fluoro-N-((5-methoxy-1H-benzotriazol-4-yl)methyl)-4-(trifluoromethoxy)-benzamide] stands 97%; under `COc1ccc2nc(C)n(C)c2c1CNC(=O)c1ccc(C(F)(F)F)cc1` [Example 237, N-((6-methoxy-1,2-dimethyl-1H-benzimidazol-7-yl)methyl)-4-(trifluoromethyl)-benzamide], 68%. Under `O=C(NCc1c(C2CC2)ccc2[nH]ncc12)c1ccc(C(F)(F)F)c(F)c1` [Example 92, N-((5-cyclopropyl-1H-indazol-4-yl)methyl)-3-fluoro-4-(trifluoro-methyl)benzamide] stands 93%; under `COc1ccc2ncn(C)c2c1CNC(=O)c1cc(Cl)c(Cl)s1` [Example 53, 4,5-dichloro-N-((6-methoxy-1-methyl-1H-benzimidazol-7-yl)-methyl)thiophene-2-carboxamide], 91%. In the case of `COc1c(F)cc(C(=O)NCc2c(C)ccc3ncn(C)c23)cc1F` [Example 25, N-((1,6-dimethyl-1H-benzimidazol-7-yl)-methyl)-3,5-difluoro-4-methoxybenzamide], the inhibition at 10 µM is 92%. Under `COc1ccc2ncn(C)c2c1CNC(=O)c1cc(C)c(F)c(F)c1` [Example 54, 3,4-difluoro-N-((6-methoxy-1-methyl-1H-benzimidazol-7-yl)-methyl)-5-methyl-benzamide] stands 85%; under `CCOc1ncc(C(=O)NCc2c(C3CC3)ccc3[nH]ncc23)cc1Cl` [Example 104, 5-chloro-N-((5-cyclopropyl-1H-indazol-4-yl)methyl)-6-ethoxynicotinamide], 90%; under `COc1ccc2ncn(C)c2c1CNC(=O)Nc1ccc(F)c(F)c1` [Example 258, 1-(3,4-difluorophenyl)-3-((6-methoxy-1-methyl-1H-benzimidazol-7-yl)methyl)urea], 85%.

`O=C(NCc1c(C2CC2)ccc2[nH]ncc12)c1ccc(C(F)(F)F)c(Cl)c1` [Example 89, 3-chloro-N-((5-cyclo-propyl-1H-indazol-4-yl)methyl)-4-(trifluoro-methyl)benzamide]: the inhibition at 10 µM came to 91%. Under `O=C(NCc1c(C2CC2)ccc2[nH]nnc12)c1ccc(OC(F)(F)F)cc1` [Example 203, N-((5-cyclopropyl-1H-benzotriazol-4-yl)methyl)-4-(trifluoromethoxy)-benzamide] stands 93%. Under `Cc1ccc2[nH]cnc2c1CNC(=O)c1ccc(OC(F)(F)F)cc1` [Example 3, N-((5-methyl-1H-benzimidazol-4-yl)methyl)-4-(trifluoromethoxy)benzamide] stands 97%. Under `COc1ncc(C(=O)NCc2c(C3CC3)ccc3[nH]nnc23)cc1F` [Example 165, N-((5-cyclopropyl-1H-benzotriazol-4-yl)methyl)-5-fluoro-6-methoxynicotinamide] stands 91%; under `COc1ccc(C(=O)NCc2c(C3CC3)ccc3[nH]ncc23)cc1Cl` [Example 80, 3-chloro-N-((5-cyclo-propyl-1H-indazol-4-yl)methyl)-4-methoxybenzamide], 93%. For `Cc1ccc2[nH]nnc2c1CNC(=O)c1ccc(C(F)(F)F)c(F)c1` [Example 199, 3-fluoro-N-((5-methyl-1H-benzotriazol-4-yl)methyl)-4-(trifluoromethyl)-benzamide], the inhibition at 10 µM came to 92%. Under `Cc1ccc2ncn(C)c2c1CNC(=O)c1cc(F)c(OC(F)F)c(F)c1` [Example 158, 4-(difluoromethoxy)-N-((1,6-dimethyl-1H-benzimidazol-7-yl)methyl)-3,5-difluorobenzamide] stands 89%. Under `O=C(NCc1cccc2[nH]ncc12)c1ccc(Cl)c(F)c1` [Example 187, 4-chloro-3-fluoro-N-(1H-indazol-4-ylmethyl)benzamide] stands 74%.

Regarding `COc1ccc2[nH]nnc2c1CNC(=O)c1ccc(OC(F)(F)F)cc1` [Example 213, N-((5-methoxy-1H-benzotriazol-4-yl)methyl)-4-(trifluoromethoxy)-benzamide], the inhibition at 10 µM worked out at 98%. Under `COc1ccc2nc(C)n(C)c2c1CNC(=O)c1cnc(OC)c(F)c1` [Example 235, 5-fluoro-6-methoxy-N-((6-methoxy-1,2-dimethyl-1H-benzimidazol-7-yl)methyl)nicotinamide] stands 57%; under `Cc1ccc2[nH]nnc2c1CNC(=O)c1ccc(OC(F)(F)F)cc1` [Example 194, N-((5-methyl-1H-benzotriazol-4-yl)methyl)-4-(trifluoromethoxy)-benzamide], 97%.

On to `COc1c(F)cc(C(=O)NCc2cccc3[nH]nnc23)cc1F` [Example 211, N-(1H-benzotriazol-4-ylmethyl)-3,5-difluoro-4-methoxybenzamide], for which the inhibition at 10 µM turned out to be 95%.

`Cc1ccc2ncn(C)c2c1CNC(=O)c1ccc(C(F)F)c(F)c1` [Example 136, 4-(difluoromethyl)-N-((1,6-dimethyl-1H-benzimidazol-7-yl)methyl)-3-fluorobenzamide]: the inhibition at 10 µM was 83%. Under `COc1ccc2ncn(C)c2c1CNC(=O)c1cc(F)c(F)c(F)c1` [Example 41, 3,4,5-trifluoro-N-((6-methoxy-1-methyl-1H-benzimidazol-7-yl)methyl)benzamide] stands 90%. Under `Cc1ccc2ncn(C)c2c1CNC(=O)c1cc(F)c(C(F)(F)F)c(F)c1` [Example 26, N-((1,6-dimethyl-1H-benzimidazol-7-yl)-methyl)-3,5-difluoro-4-(trifluoromethyl)benzamide] stands 66%; under `COc1ccc2ncn(C)c2c1CNC(=O)c1ccc(Cl)s1` [Example 36, 5-chloro-N-((6-methoxy-1-methyl-1H-benzimidazol-7-yl)methyl)-thiophene-2-carboxamide], 89%.

For the compound `O=C(NCc1c(C2CC2)ccc2[nH]ncc12)c1ccc(C(F)F)cc1` [Example 98, N-((5-cyclopropyl-1H-indazol-4-yl)methyl)-4-(difluoromethyl)-benzamide], the inhibition at 10 µM amounted to 90%. In the case of `COc1ccc2ncn(C)c2c1CNC(=O)c1ccc(C(F)F)c(Cl)c1` [Example 112, 3-chloro-4-(difluoromethyl)-N-((6-methoxy-1-methyl-1H-benzimidazol-7-yl)methyl)benzamide], the inhibition at 10 µM turned out to be 92%. Under `O=C(NCc1c(C2CC2)ccc2[nH]ncc12)c1cc(F)c(C(F)F)c(F)c1` [Example 108, N-((5-cyclopropyl-1H-indazol-4-yl)methyl)-(difluoromethyl)-3,5-dlfluorobenzamide] stands 94%; under `O=C(NCc1c(C2CC2)ccc2[nH]ncc12)c1ccc(OC(F)F)c(F)c1` [Example 120, N-((5-cyclopropyl-1H-indazol-4-yl)methyl)-4-(difluoromethoxy)-3-fluorobenzamide], 92%. Under `COc1ccc2ncn(C)c2c1CNC(=O)c1csc(C)c1` [Example 27, N-((6-methoxy-1-methyl-1H-benzimidazol-7-yl)-methyl)-5-methylthiophene-3-carboxamide] stands 82%; under `COc1ccc2ncn(C)c2c1CNC(=O)Nc1cccc(C)c1` [Example 215, 1-((6-methoxy-1-methyl-1H-benzimidazol-7-yl)methyl)-3-(3-methylphenyl)urea], 53%.
